Test results as given in patent US20080200337A1, “Mixed herbicide compositions for paddy field” (Bayer CropScience, priority 2007, published 2008).
Values joined by “and” are separate entries in the source; they are usually repeats but may differ in a detail not shown here. Equal values may be shown once.

Experiments:
Format in all cases: in vivo
[1] = system: Cyperus serotinus Rottboel; assay: Weed control, flooded paddy field, treatment at 1 leaf-stage (Test Example 1); conditions: after 4 weeks
Procedure: (§1) Carrier: 5 parts by weight of acetone
(§2) Surfactant: one part by weight of benzyloxy polyglycol ether.
(§3) Above described carrier and surfactant are mixed with one part by weight of the active compound ((a) ingredient and (b) ingredient) and the resulting preparation is then diluted with water to obtain given amount of the test drug (the formulation).
(§4) In a greenhouse, seeds or tubers of Echinochloa, Scirpus juncoides Roxburgh, Monochoria vaginalis Presl, annual broad-leaved weeds (Lindernia procumbens Philcox, Lindernia dubia L. Penn., Rotala indica Koehne, Elatine triandra Schk, Ammannia multiflora Roxb.), Cyperus serotinus Rottboel and Sagittaria pygmaea Miq. were inoculated in a 500 cm^2 pot filled with paddy field soil. After 2 leaf-stage of rice were transplanted, water was poured to a depth of about 3 cm. At 1.0 leaf-stage of Echinochloa oryzicola Vasing, a prescribed, diluted solution of the formulation of each active compound and each herbicidal compound in the table was separately or simultaneously applied to the surface of water. After the treatment, the water depth of 3 cm was maintained, and herbicidal effect was examined after 4 weeks. In the assessment of the herbicidal effect and the phytotoxicity, 100% refers to complete death and 0% refers to no effect or no phytotoxicity.

Echinochloa [2] = assay: as above; conditions: after 4 weeks
Procedure: as §1, §2, §3, §4

[3] = system: Monochoria vaginalis Presl; assay: as above; conditions: after 4 weeks
Procedure: as §1, §2, §3, §4

Sagittaria pygmaea Miq. [4] = assay: as above; conditions: after 4 weeks
Procedure: as §1, §2, §3, §4

[5] = system: Scirpus juncoides Roxburgh; assay: as above; conditions: after 4 weeks
Procedure: as §1, §2, §3, §4

[6] = system: annual broad-leaved weeds; assay: as above; conditions: after 4 weeks
Procedure: as §1, §2, §3, §4

transplanted rice [7] = assay: Phytotoxicity, flooded paddy field, treatment at 1 leaf-stage (Test Example 1)
Procedure: as §1, §2, §3, §4

[8] = system: Cyperus serotinus Rottboel; assay: Weed control, flooded paddy field, treatment at 3 leaf-stage (Test Example 2); conditions: after 4 weeks
Procedure: as §1, §2, §3
as §4, with “Echinochloa, Cyperus difformis L.,” for “Echinochloa,”, “3.0” for “1.0”, “Echinochloa,” for “Echinochloa oryzicola Vasing,”

Echinochloa [9] = assay: as above; conditions: after 4 weeks
Procedure: as §1, §2, §3
as §4, with “Echinochloa, Cyperus difformis L.,” for “Echinochloa,”, “3.0” for “1.0”, “Echinochloa,” for “Echinochloa oryzicola Vasing,”

[10] = system: Monochoria vaginalis Presl; assay: as above; conditions: after 4 weeks
Procedure: as §1, §2, §3
as §4, with “Echinochloa, Cyperus difformis L.,” for “Echinochloa,”, “3.0” for “1.0”, “Echinochloa,” for “Echinochloa oryzicola Vasing,”

Sagittaria pygmaea Miq. [11] = assay: as above; conditions: after 4 weeks
Procedure: as §1, §2, §3
as §4, with “Echinochloa, Cyperus difformis L.,” for “Echinochloa,”, “3.0” for “1.0”, “Echinochloa,” for “Echinochloa oryzicola Vasing,”

[12] = system: Scirpus juncoides Roxburgh; assay: as above; conditions: after 4 weeks
Procedure: as §1, §2, §3
as §4, with “Echinochloa, Cyperus difformis L.,” for “Echinochloa,”, “3.0” for “1.0”, “Echinochloa,” for “Echinochloa oryzicola Vasing,”

[13] = system: annual broad-leaved weeds; assay: as above; conditions: after 4 weeks
Procedure: as §1, §2, §3
as §4, with “Echinochloa, Cyperus difformis L.,” for “Echinochloa,”, “3.0” for “1.0”, “Echinochloa,” for “Echinochloa oryzicola Vasing,”

transplanted rice [14] = assay: Phytotoxicity, flooded paddy field, treatment at 3 leaf-stage (Test Example 2)
Procedure: as §1, §2, §3
as §4, with “Echinochloa, Cyperus difformis L.,” for “Echinochloa,”, “3.0” for “1.0”, “Echinochloa,” for “Echinochloa oryzicola Vasing,”

SMILES: Cc1c(Cl)ccc(OC(C)C(=O)Nc2ccccc2)c1Cl (stereo not shown) [(b-1), clomeprop]
- Herbicidal effect (%) CYPSEE ([1]; 350 g ai/ha): 50%
- Herbicidal effect (%) ECHSS (Echinochloa [2]; 350 g ai/ha): 20%
- Herbicidal effect (%) MOOVP ([3]; 350 g ai/ha): 100%
- Herbicidal effect (%) SAGPY (Sagittaria pygmaea Miq. [4]; 350 g ai/ha): 90%
- Herbicidal effect (%) SCPSS ([5]; 350 g ai/ha): 90%
- Herbicidal effect (%) BBBBB ([6]; 350 g ai/ha): 100%
- Phytotoxicity (%) ORYSP (transplanted rice [7]; 350 g ai/ha, treatment at 1 leaf-stage, after 4 weeks): 10% and 0%
- Herbicidal effect (%) CYPSEE ([8]; 350 g ai/ha): 20%
- Herbicidal effect (%) ECHSS (Echinochloa [9]; 350 g ai/ha): 20%
- Herbicidal effect (%) MOOVP ([10]; 350 g ai/ha): 100%
- Herbicidal effect (%) SAGPY (Sagittaria pygmaea Miq. [11]; 350 g ai/ha): 90%
- Herbicidal effect (%) SCPSS ([12]; 350 g ai/ha): 90%
- Herbicidal effect (%) BBBBB ([13]; 350 g ai/ha): 90%
- Phytotoxicity (%) ORYSP (transplanted rice [14]; rice, in vivo, 4 weeks): 0%

SMILES: Cc1ccc(C(=O)COc2c(C(=O)c3ccc(Cl)c(C)c3Cl)c(C)nn2C)cc1 [(b-3), benzofenap]
- Herbicidal effect (%) CYPSEE ([1]; 800 g ai/ha): 20%
- Herbicidal effect (%) ECHSS (Echinochloa [2]; 800 g ai/ha): 80%
- Herbicidal effect (%) MOOVP ([3]; 800 g ai/ha): 80%
- Herbicidal effect (%) SAGPY (Sagittaria pygmaea Miq. [4]; 800 g ai/ha): 70%
- Herbicidal effect (%) SCPSS ([5]; 800 g ai/ha): 70%
- Herbicidal effect (%) BBBBB ([6]; 800 g ai/ha): 100%
- Phytotoxicity (%) ORYSP (transplanted rice [7]; 800 g ai/ha, treatment at 1 leaf-stage, after 4 weeks): 0%
- Herbicidal effect (%) CYPSEE ([8]; 800 g ai/ha): 0%
- Herbicidal effect (%) ECHSS (Echinochloa [9]; 800 g ai/ha): 10%
- Herbicidal effect (%) MOOVP ([10]; 800 g ai/ha): 50%
- Herbicidal effect (%) SAGPY (Sagittaria pygmaea Miq. [11]; 800 g ai/ha): 60%
- Herbicidal effect (%) SCPSS ([12]; 800 g ai/ha): 0%
- Herbicidal effect (%) BBBBB ([13]; 800 g ai/ha): 70%
- Phytotoxicity (%) ORYSP (transplanted rice [14]; rice, in vivo, 4 weeks): 0%

SMILES: COCc1cccc(C(O)c2nc(OC)cc(OC)n2)c1NS(=O)(=O)C(F)F (stereo not shown) [(b-8), pyrimisulfan]
- Herbicidal effect (%) CYPSEE ([1]; 50 g ai/ha): 95%
- Herbicidal effect (%) ECHSS (Echinochloa [2]; 50 g ai/ha): 95%
- Herbicidal effect (%) MOOVP ([3]; 50 g ai/ha): 95%
- Herbicidal effect (%) SAGPY (Sagittaria pygmaea Miq. [4]; 50 g ai/ha): 90%
- Herbicidal effect (%) SCPSS ([5]; 50 g ai/ha): 95%
- Herbicidal effect (%) BBBBB ([6]; 50 g ai/ha): 95%
- Phytotoxicity (%) ORYSP (transplanted rice [7]; 50 g ai/ha, treatment at 1 leaf-stage, after 4 weeks): 15%
- Herbicidal effect (%) CYPSEE ([8]; 50 g ai/ha): 90%
- Herbicidal effect (%) ECHSS (Echinochloa [9]; 50 g ai/ha): 85%
- Herbicidal effect (%) MOOVP ([10]; 50 g ai/ha): 95%
- Herbicidal effect (%) SAGPY (Sagittaria pygmaea Miq. [11]; 50 g ai/ha): 85%
- Herbicidal effect (%) SCPSS ([12]; 50 g ai/ha): 90%
- Herbicidal effect (%) BBBBB ([13]; 50 g ai/ha): 85%
- Phytotoxicity (%) ORYSP (transplanted rice [14]; 50 g ai/ha, treatment at 3 leaf-stage, after 4 weeks): 5%

SMILES: CC(C)(NC(=O)C(Br)C(C)(C)C)c1ccccc1 (stereo not shown) [(b-2), bromobutide]
- Herbicidal effect (%) CYPSEE ([1]; 750 g ai/ha): 70%
- Herbicidal effect (%) ECHSS (Echinochloa [2]; 750 g ai/ha): 100%
- Herbicidal effect (%) MOOVP ([3]; 750 g ai/ha): 80%
- Herbicidal effect (%) SAGPY (Sagittaria pygmaea Miq. [4]; 750 g ai/ha): 70%
- Herbicidal effect (%) SCPSS ([5]; 750 g ai/ha): 90%
- Herbicidal effect (%) BBBBB ([6]; 750 g ai/ha): 50%
- Phytotoxicity (%) ORYSP (transplanted rice [7]; 750 g ai/ha, treatment at 1 leaf-stage, after 4 weeks): 0%
- Herbicidal effect (%) CYPSEE ([8]; 750 g ai/ha): 90%
- Herbicidal effect (%) ECHSS (Echinochloa [9]; 750 g ai/ha): 45%
- Herbicidal effect (%) MOOVP ([10]; 750 g ai/ha): 70%
- Herbicidal effect (%) SAGPY (Sagittaria pygmaea Miq. [11]; 750 g ai/ha): 40%
- Herbicidal effect (%) SCPSS ([12]; 750 g ai/ha): 80%
- Herbicidal effect (%) BBBBB ([13]; 750 g ai/ha): 30%
- Phytotoxicity (%) ORYSP (transplanted rice [14]; rice, in vivo, 4 weeks): 0%

SMILES: CS(=O)(=O)c1ccc(C(=O)C2C(=O)CCCC2=O)c(Cl)c1COCC1CCCO1 (stereo not shown) [(b-7), 2-{2-chloro-4-mesyl-3-[(tetrahydrofuran-2-ylmethoxy)methyl]-benzoyl}-cyclohexan-1,3-dione]
- Herbicidal effect (%) CYPSEE ([1]; 200 g ai/ha): 90%
- Herbicidal effect (%) ECHSS (Echinochloa [2]; 200 g ai/ha): 95%
- Herbicidal effect (%) MOOVP ([3]; 200 g ai/ha): 90%
- Herbicidal effect (%) SAGPY (Sagittaria pygmaea Miq. [4]; 200 g ai/ha): 90%
- Herbicidal effect (%) SCPSS ([5]; 200 g ai/ha): 95%
- Herbicidal effect (%) BBBBB ([6]; 200 g ai/ha): 90%
- Phytotoxicity (%) ORYSP (transplanted rice [7]; 200 g ai/ha, treatment at 1 leaf-stage, after 4 weeks): 0%
- Herbicidal effect (%) CYPSEE ([8]; 200 g ai/ha): 70%
- Herbicidal effect (%) ECHSS (Echinochloa [9]; 200 g ai/ha): 70%
- Herbicidal effect (%) MOOVP ([10]; 200 g ai/ha): 95%
- Herbicidal effect (%) SAGPY (Sagittaria pygmaea Miq. [11]; 200 g ai/ha): 80%
- Herbicidal effect (%) SCPSS ([12]; 200 g ai/ha): 88%
- Phytotoxicity (%) ORYSP (transplanted rice [14]; rice, in vivo, 4 weeks): 0%

SMILES: CCN(C(=O)n1nnn(-c2ccccc2Cl)c1=O)C1CCCCC1 [(b-6), fentrazamide]
- Herbicidal effect (%) CYPSEE ([1]; 300 g ai/ha): 95%
- Herbicidal effect (%) ECHSS (Echinochloa [2]; 300 g ai/ha): 95%
- Herbicidal effect (%) MOOVP ([3]; 300 g ai/ha): 95%
- Herbicidal effect (%) SAGPY (Sagittaria pygmaea Miq. [4]; 300 g ai/ha): 50%
- Herbicidal effect (%) SCPSS ([5]; 300 g ai/ha): 95%
- Herbicidal effect (%) BBBBB ([6]; 300 g ai/ha): 85%
- Phytotoxicity (%) ORYSP (transplanted rice [7]; 300 g ai/ha, treatment at 1 leaf-stage, after 4 weeks): 0%
- Herbicidal effect (%) CYPSEE ([8]; 300 g ai/ha): 75%
- Herbicidal effect (%) ECHSS (Echinochloa [9]; 300 g ai/ha): 69%
- Herbicidal effect (%) MOOVP ([10]; 300 g ai/ha): 55%
- Herbicidal effect (%) SAGPY (Sagittaria pygmaea Miq. [11]; 300 g ai/ha): 50%
- Herbicidal effect (%) SCPSS ([12]; 300 g ai/ha): 80%
- Herbicidal effect (%) BBBBB ([13]; 300 g ai/ha): 55%
- Phytotoxicity (%) ORYSP (transplanted rice [14]; 300 g ai/ha, treatment at 3 leaf-stage, after 4 weeks): 0%

SMILES: COC(=O)c1ccccc1CS(=O)(=O)NC(=O)Nc1nc(OC)cc(OC)n1 [(b-4), bensulfuron methyl]
- Herbicidal effect (%) CYPSEE ([1]; 50 g ai/ha): 85%
- Herbicidal effect (%) ECHSS (Echinochloa [2]; 50 g ai/ha): 50%
- Herbicidal effect (%) MOOVP ([3]; 50 g ai/ha): 90%
- Herbicidal effect (%) SAGPY (Sagittaria pygmaea Miq. [4]; 50 g ai/ha): 90%
- Herbicidal effect (%) SCPSS ([5]; 50 g ai/ha): 90%
- Herbicidal effect (%) BBBBB ([6]; 50 g ai/ha): 90%
- Phytotoxicity (%) ORYSP (transplanted rice [7]; rice, in vivo, 4 weeks): 0%
- Herbicidal effect (%) CYPSEE ([8]; 50 g ai/ha): 80%
- Herbicidal effect (%) ECHSS (Echinochloa [9]; 50 g ai/ha): 20%
- Herbicidal effect (%) MOOVP ([10]; 50 g ai/ha): 90%
- Herbicidal effect (%) SAGPY (Sagittaria pygmaea Miq. [11]; 50 g ai/ha): 80%
- Herbicidal effect (%) SCPSS ([12]; 50 g ai/ha): 85%
- Herbicidal effect (%) BBBBB ([13]; 50 g ai/ha): 90%
- Phytotoxicity (%) ORYSP (transplanted rice [14]; rice, in vivo, 4 weeks): 0%
